Reference: ChEMBL document CHEMBL4385666, “Exploring hydroxamic acid inhibitors of HDAC1 and HDAC2 using small molecule tools and molecular or homology modelling” (Bioorg Med Chem Lett, 2019)

What was measured:
[1] = target: Histone deacetylase 2 (Homo sapiens, UniProt Q92769); experiment: Inhibition of human recombinant HDAC2 pre-incubated for 30 mins before substrate addition and measured after 30 mins by fluorescence based assay
[2] = target: Class 1 histone deacetylase (Homo sapiens, UniProt Q13547+O15379+Q92769+Q9BY41); experiment: Inhibition Class 1 histone deacetylase in human HeLa nuclear extracts using Fluor-de- Lys-green substrate by fluorescence assay; format: cell-free
[3] = target: Histone deacetylase 1 (Homo sapiens, UniProt Q13547); experiment: Inhibition of human recombinant HDAC1 pre-incubated for 30 mins before substrate addition and measured after 30 mins by fluorescence based assay
Histone deacetylase 1, sequence (Q13547 whole entry): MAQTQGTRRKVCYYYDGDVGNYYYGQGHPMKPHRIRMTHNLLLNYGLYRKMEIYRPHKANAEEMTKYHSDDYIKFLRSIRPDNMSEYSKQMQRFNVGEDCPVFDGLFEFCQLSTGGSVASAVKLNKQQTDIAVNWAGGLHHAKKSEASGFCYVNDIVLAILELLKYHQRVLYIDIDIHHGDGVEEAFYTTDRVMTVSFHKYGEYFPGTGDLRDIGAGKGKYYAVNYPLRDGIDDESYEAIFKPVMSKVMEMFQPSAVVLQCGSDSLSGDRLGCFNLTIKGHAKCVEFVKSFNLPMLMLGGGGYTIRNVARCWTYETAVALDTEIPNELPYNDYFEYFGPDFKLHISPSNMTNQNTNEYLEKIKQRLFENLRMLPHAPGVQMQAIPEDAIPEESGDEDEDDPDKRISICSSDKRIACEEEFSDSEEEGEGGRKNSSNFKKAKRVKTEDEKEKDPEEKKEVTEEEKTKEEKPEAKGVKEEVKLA

Histone deacetylase 2, sequence (Q92769 whole entry): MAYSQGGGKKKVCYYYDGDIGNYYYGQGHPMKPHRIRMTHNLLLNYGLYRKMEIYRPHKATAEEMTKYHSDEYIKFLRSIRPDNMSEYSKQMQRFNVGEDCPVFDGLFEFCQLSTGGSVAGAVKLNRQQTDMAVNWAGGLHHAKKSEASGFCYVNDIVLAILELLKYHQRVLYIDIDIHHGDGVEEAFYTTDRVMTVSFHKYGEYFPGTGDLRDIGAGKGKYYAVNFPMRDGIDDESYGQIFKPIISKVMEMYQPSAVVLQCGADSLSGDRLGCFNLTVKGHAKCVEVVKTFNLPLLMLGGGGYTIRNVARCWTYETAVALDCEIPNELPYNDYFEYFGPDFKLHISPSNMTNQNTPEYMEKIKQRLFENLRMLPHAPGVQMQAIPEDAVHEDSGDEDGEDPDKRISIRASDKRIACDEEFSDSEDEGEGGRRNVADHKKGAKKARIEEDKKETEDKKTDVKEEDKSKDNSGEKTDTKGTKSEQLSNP

| SMILES | IC50 [1] | IC50 [2] | IC50 [3] |
| --- | --- | --- | --- |
| COc1cccc(OC)c1CNCc1ccc(/C=C/C(=O)NO)cc1 | 1080 nM | 235 nM | 636 nM |
| COc1ccc(CNCc2ccc(/C=C/C(=O)NO)cc2)cc1OC | 1890 nM | 371 nM | 1260 nM |
| COc1cccc(CNCc2ccc(/C=C/C(=O)NO)cc2)c1 | 819 nM | 420 nM | 463 nM |
| O=C(/C=C/c1ccc(CNCc2ccccc2)cc1)NO | – | 370 nM | – |
| COc1cc(CNCc2ccc(/C=C/C(=O)NO)cc2)cc(OC)c1 | 1270 nM | 415 nM | 837 nM |
| COc1ccc(OC)c(CNCc2ccc(/C=C/C(=O)NO)cc2)c1 | 1750 nM | 292 nM | 620 nM |
| COc1ccccc1CNCc1ccc(/C=C/C(=O)NO)cc1 | 1490 nM | 278 nM | 610 nM |
| COc1cccc(CNCc2ccc(/C=C/C(=O)NO)cc2)c1OC | 950 nM | 296 nM | 602 nM |
| COc1ccc(CNCc2ccc(/C=C/C(=O)NO)cc2)cc1 | 926 nM | 195 nM | 381 nM |
| COc1ccc(CNCc2ccc(/C=C/C(=O)NO)cc2)c(OC)c1 | 994 nM | 258 nM | 449 nM |
